# Source: US10994017B2, “Nerve labeling compositions and uses thereof” (Avelas Biosciences, Inc., priority 2016, dated 2021)
# Square brackets hold non-standard residues; d marks the D form. Peptide text beside a SMILES is read from it. * marks the point of attachment. X2 = O=C(NCCN1C(=O)CC(*)C1=O)c1ccc(C(=O)O)c(-c2c3ccc(=O)cc-3oc3cc(O)ccc23)c1; X1 = O=C(O)c1ccc(C(=O)*)cc1-c1c2ccc(=O)cc-2oc2cc(O)ccc12
# How the values were obtained:
# sciatic nerve = experiment: Fluorescence contrast in murine nerves: in vivo imaging of sciatic nerve after intravenous injection; parameters: species or system mouse; settings: for N/B contrast compared to the equivalent NDMs comprising L-amino acids / N/S contrast compared to the equivalent NDMs comprising L-amino acids: retro-inverso (D-amino acids) versus NDM-39, NDM-41
# Method: The visualization contrast activity of fluorescent peptides for nerve imaging was assessed using male immunocompetent hairless SKH1-E mice purchased from Charles River (Charles River, Wilmington, Mass. 01887, USA). SKH1-E mice weighing 25-30 grams were housed in group of 4 in individually ventilated IVC disposable cages (Innovive, Inc., San Diego, Calif. 92121, USA) and maintained under controlled environmental conditions (12-h/12-h light/dark cycle; temperature of 64-79F and relative humidity of 30-70%) for at least 5 days before experimental use. Animals had free access to standard laboratory rodent diet (Cat. #2018, Teklad Global 18% Protein Rodent Diet; Harlan Laboratories, Inc. Indianapolis, Ind. 46250, USA) and acidified drinking water throughout the course of study. All experiments were carried out under Institutional Animal Care and Use Committee (IACUC) approved protocol.
# On the day of study, each involved mouse was weighed, examined for general condition and restrained using a rotating tail injector (Cat. #RTI, Braintree Scientific, Braintree, Mass. 021585, USA) for intravenous (tail vein) injection of test compound in conscious animal. The test compounds were tested (25-150 nmol in 0.1 mL/mouse) was then injected intravenously in mouse using a 28G1/2 Insulin syringe (Cat. #14-826-79, Becton Dickinson and Company, Franklin Lakes, N.J. 07417, USA). After the intravenous injection, each involved mouse was housed back in its assigned cage and kept under controlled environmental conditions before being examined for fluorescence labeling of the sciatic nerve.
# Two hours after the intravenous injection, each involved mouse was terminally anesthetized with a mixture of ketamine HCl (Zetamine™, 100 mg/mL, ANADA 200-055 approved by FDA, NDC-13985-702-10; VETone®, Boise, Id. 83705, USA) and xylazine (Rompun™, 100 mg/mL, NADA-047-956 approved by FDA, Bayer HealthCare, LLC, Animal Health Divison, KS 66201, USA) which consisted of a combination of 100 mg/kg of ketamine with 10 mg/kg of xylazine administered intraperitoneally. The terminally anesthetized mouse was transferred on the piece of cork (4×4 inches, Quartet®, ACCO Brands, Lincolnshire, Ill. 60069, USA) for blunt dissection of sciatic nerve after checking the toe pinch reflex. The sciatic nerve was exposed by removing skin from the dorsal surface of the thigh and blunt dissecting the muscles parallel and posterior to the femur after checking […] (no reflex to toe pinch) in terminally anesthetized mouse. Full body imaging of the terminally anesthetized mouse with both sciatic nerves exposed was then performed using a computerized UVP BioSpectrum® 500 Imaging System fitted with appropriate excitation/emission filters for fluorescein, Cy5, or other dye detection and a VisionWorks® LS Software (UVP-BioSpectrum Imaging System, Upland, Calif., USA) for image acquisition and analysis. After the mouse full body imaging, the exposed and saline moisturized sciatic nerves were subsequently imaged using computerized fluorescence stereomicroscope (SZX 10, Olympus Optical, CO, LTD, Japan) interfaced with PictureFrame™, an image processing application suitable for image acquisition and analysis (Optronics, Goleta, Calif. 93117) or an in-house built Microscope Imaging System interfaced with Spot Software 5.0 (SPOT Imaging Solutions, Sterling Heights, Mich. 48314) for image acquisition and analysis. All above-mentioned Imaging Systems were equipped with appropriate excitation/emission filters for fluorescein, Cy5, or other dye detection. Following the imaging session, all captured images of fluorescently labeled sciatic nerves were examined and analyzed using the image processing program Image J to generate quantitative fluorescence data. For each involved mouse, fluorescence intensity of each examined sciatic nerve was acquired by drawing an area on the surface of the exposed sciatic nerve using Image J features and capabilities. […]
# [1] = system: dorsal subcutaneous cervical or thoracic nerves; experiment: In vivo fluorescence imaging of dorsal subcutaneous cervical and thoracic nerves (FIG. 2, FIG. 3); parameters: species or system mouse; settings: FIG. 2 and FIG. 3, fluorescence versus reflected light images
# From the text: (§1) Nerves are more clearly visualized utilizing NDM-38.
# splanchic nerve = experiment: In vivo fluorescence imaging of splanchnic nerve (FIG. 4); settings: FIG. 4, mouse, fluorescence versus reflected light images
# From the text: as §1
# renal nerve = experiment: In vivo fluorescence imaging of renal nerve (FIG. 5); parameters: species or system mouse; settings: FIG. 5, fluorescence versus reflected light images
SMILES,N/B contrast relative to NDMs with glycine linkers (sciatic nerve; alanine linker versus NDM-44),N/S contrast relative to NDMs with glycine linkers (sciatic nerve; alanine linker versus NDM-44),N/B contrast compared to the equivalent NDMs comprising L-amino acids (sciatic nerve),N/S contrast compared to the equivalent NDMs comprising L-amino acids (sciatic nerve),fluorescence contrast (nerve/background) of mouse dorsal subcutaneous cervical or thoracic nerves [1],fluorescence contrast (nerve/background) of splanchic nerve (splanchic nerve),fluorescence contrast (nerve/background) of mouse renal nerve (renal nerve),"fluorescence contrast (nerve/background) of mouse sciatic nerve (sciatic nerve; FIG. 1, fluorescence versus reflected light images)"
"CC(=O)N[C@H](CCCCNC(=O)c1ccc(C(=O)O)c(-c2c3ccc(=O)cc-3oc3cc(O)ccc23)c1)C(=O)N[C@H](C)C(=O)N[C@H](C)C(=O)N[C@H](C)C(=O)N[C@@H](C(=O)N[C@H](Cc1c[nH]cn1)C(=O)N[C@H](CCC(=O)O)C(N)=O)[C@H](C)O [NDM-38, Ac-[D-Lys(6FAM)]-(D-Ala)-(D-Ala)-(D-Ala)-(D-Thr)-(D-His)-(D-Glu)-NH2] (Ac-[dK](X1)[dA][dA][dA][dT][dH][dE]-NH2)",higher,higher,substantially higher,substantially higher,very high fluorescence contrast,very high fluorescence contrast,very high fluorescence contrast,–
"CC(=O)N[C@H](CSC1CC(=O)N(CCNC(=O)c2ccc(C(=O)O)c(-c3c4ccc(=O)cc-4oc4cc(O)ccc34)c2)C1=O)C(=O)N[C@H](C)C(=O)N[C@H](C)C(=O)N[C@H](C)C(=O)N[C@@H](C(=O)N[C@H](Cc1c[nH]cn1)C(=O)N[C@H](CCC(=O)O)C(N)=O)[C@H](C)O (stereo partly drawn) [NDM-40, Ac-[D-Cys(6FAM)]-(D-Ala)-(D-Ala)-(D-Ala)-(D-Thr)-(D-His)-(D-Glu)-NH2] (Ac-[dC](X2)[dA][dA][dA][dT][dH][dE]-NH2)",–,–,substantially higher,substantially higher,–,–,–,very high fluorescence contrast
